Laboratory results reported in patent publication US20250197387A1, “BCL-XL DEGRADERS AND USES THEREOF” (Kymera Therapeutics, Inc., priority 2021, published 2025).

Key:
Assay type in all cases: cell-based
BCL-XL [1] = molecular target: T1, BCL-XL (Homo sapiens, UniProt Q07817); assay: BCL-XL degradation assay, western blot in MOLT-4 cells, 16 h; conditions: western blot, MOLT-4 cells, 16 h; for Dmax: read-out: Bcl-xL WB in MOLT-4 degradation 16 h: Average Dmax %; for DC50: read-out: Bcl-xL WB in MOLT-4 degradation 16 h: Mean external-Abs DC50
T1 construct: endogenous in cells; host or cells: MOLT-4
T1 sequence (Q07817 whole entry): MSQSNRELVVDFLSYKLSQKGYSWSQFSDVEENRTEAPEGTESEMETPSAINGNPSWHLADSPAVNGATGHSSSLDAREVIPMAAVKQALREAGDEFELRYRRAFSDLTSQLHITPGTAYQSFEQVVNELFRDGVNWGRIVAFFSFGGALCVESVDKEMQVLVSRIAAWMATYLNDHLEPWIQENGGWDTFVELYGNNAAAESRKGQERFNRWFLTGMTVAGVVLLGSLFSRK
Summary of the method: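 MOLT-4 cells treated with compounds at 0.02-10 μM final for 16 hr at 37° C; lysates analysed by western blot with anti-BCL-xL, beta-actin and GAPDH loading controls, infrared imaging and densitometry; DC50 and Dmax % reported as letter codes.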

MOLT-4 cells = assay: CTG (CellTiter-Glo) cell viability assay, MOLT-4; conditions: Homo sapiens, MOLT-4, 72 h, 3 day incubation, read-out: CTG Cell Viability Assay - MOLT-4 3 day: Average external-IC50
Description: Compound-mediated viability effect on MOLT-4 and Caki-2 was quantitatively determined using the CellTiter-Glo® Luminescent Cell Viability Assay kit from Promega (Catalog number G7570) following manufacturer's recommended procedures. Briefly, MOLT-4 and Caki-2 cells were seeded into 384 well plates (Grenier Bio-One, Catalog number 781080) with a density of 10,000 cells per well. Compounds were then added to the assay plate with final top concentration of 10 μM and 1:3 dilution series with total of 9 doses. The final DMSO concentration is normalized to 0.2%. The assay plates were incubated at 37° C., for 3 days under 5% CO2. Then the assay plate was equilibrated at room temperature for 10 minutes. To determine cell viability, 30 uL CellTiter Glo reagent was added to each well and the assay plate was centrifuged at 1000 rpm for 30 second, incubated at room temperature for 10 min, and analyzed by detecting the luminescence using a multimode plate reader (EnVision 2105, PerkinElmer). The data was then analyzed by software Prism 7.0 from GraphPad and the dose response curves are fit using a three-parameter logistic equation to calculate IC50.
The letter codes for MOLT-4 IC50 include: A (<0.1 μM); B (0.1-1.0 μM); C (>1.0-3.0 μM); and D (>3.0 μM). The letter codes for Caki-2 IC50 include: A (<0.1 μM); B (0.1-1.0 μM); C (>1.0-10.0 μM); and D (>10.0 μM).

BCL-XL [2] = molecular target: T1, BCL-XL; assay: Bcl-xL ELISA degradation in MOLT-4 cells, 6 h; conditions: for DC50: read-out: Bcl-xL ELISA in MOLT-4 degradation 6 h: Mean external-Abs DC50
Description: The letter codes for BCL-XL DC50 include: A (<0.01 μM); B (0.01-0.1 μM); C (>[…]); D (>0.5-1.0 μM); and E (>1.0 μM). The letter codes for Dmax % include A (>75%); B (50 to 75%); C (<50%).

SMILES	Dmax (BCL-XL [1]) [%]	DC50 (BCL-XL [1]) [nM]	IC50 (MOLT-4 cells) [nM]	Dmax (BCL-XL [2]) [%]	DC50 (BCL-XL [2]) [nM]
Cc1ncsc1-c1ccc([C@H](C)NC(=O)[C@@H]2C[C@@H](O)CN2C(=O)[C@H](c2cc(OC3CCN(CCCS(=O)(=O)NC(=O)c4nc(N5CCc6cccc(C(=O)Nc7nc8ccccc8s7)c6C5)ccc4-c4cnn(CC5CCCCC5)c4C)CC3)no2)C(C)C)cc1 [I-174]	< 50	> 1000	1000 to 3000		
Cc1ncsc1-c1ccc(CNC(=O)[C@@H]2C[C@@H](O)CN2C(=O)[C@@H](NC(=O)C2(C#N)CC2)C(C)(C)C)c(OCC(=O)N2CCN(CC[C@H](CSc3ccccc3)Nc3ccc(S(=O)(=O)NC(=O)c4ccc(N5CCN(CC6=C(c7ccc(Cl)cc7)CCC(C)(C)C6)CC5)cc4)cc3S(=O)(=O)C(F)(F)F)CC2)c1 [I-133]	> 75	10 to 100	1000 to 3000		
Cc1ncsc1-c1ccc([C@H](C)NC(=O)[C@@H]2C[C@@H](O)CN2C(=O)[C@@H](NC(=O)CCCCCC(=O)N2CCN(CC[C@H](CSc3ccccc3)Nc3ccc(S(=O)(=O)NC(=O)c4csc(N5CCc6cccc(C(=O)Nc7nc8ccccc8s7)c6C5)n4)cc3S(=O)(=O)C(F)(F)F)CC2)C(C)(C)C)cc1 [I-108]	> 75	10 to 100	1000 to 3000		
Cc1ncsc1-c1ccc([C@H](C)NC(=O)[C@@H]2C[C@@H](O)CN2C(=O)[C@@H](NC(=O)N2CCC(CN3CCC(CNC(=O)c4nc(N5CCc6cccc(C(=O)Nc7nc8ccccc8s7)c6C5)ccc4-c4cnn(CC5CCCCC5)c4C)CC3)CC2)C(C)(C)C)cc1 [I-144]	50 to 75	500 to 1000	100 to 1000		
Cc1ncsc1-c1ccc([C@H](C)NC(=O)[C@@H]2C[C@@H](O)CN2C(=O)C(c2cc(OCC3CCN(CCNC(=O)c4nc(N5CCc6cccc(C(=O)Nc7nc8ccccc8s7)c6C5)ccc4-c4cnn(CC5CCCCC5)c4C)CC3)no2)C(C)C)cc1 (some centres unmarked) [I-175]	< 50	> 1000	100 to 1000		
Cc1ncsc1-c1ccc([C@H](C)NC(=O)[C@@H]2C[C@@H](O)CN2C(=O)[C@@H](NC(=O)CCCCCC(=O)N2CCN(CC[C@H](CSc3ccccc3)Nc3ccc(S(=O)(=O)NC(=O)c4ccc(N5CCC(C)(C)CC5)cc4)cc3S(=O)(=O)C(F)(F)F)CC2)C(C)(C)C)cc1 [I-392]	< 50	> 1000	> 3000		
Cc1ncsc1-c1ccc([C@@H](CC(=O)N(C)CCCC(=O)N2CCN(CC[C@H](CSc3ccccc3)Nc3ccc(S(=O)(=O)NC(=O)c4ccc(N5CCN(CC6=C(c7ccc(Cl)cc7)CCC(C)(C)C6)CC5)cc4)cc3S(=O)(=O)C(F)(F)F)CC2)NC(=O)[C@@H]2C[C@@H](O)CN2C(=O)[C@@H](NC(=O)C2(F)CC2)C(C)(C)C)cc1 [I-139]	> 75	100 to 500	1000 to 3000		
Cc1ncsc1-c1ccc([C@H](CC(=O)N(C)CCCC(=O)N2CCN(CC[C@H](CSc3ccccc3)Nc3ccc(S(=O)(=O)NC(=O)c4ccc(N5CCN(CC6=C(c7ccc(Cl)cc7)CCC(C)(C)C6)CC5)cc4)cc3S(=O)(=O)C(F)(F)F)CC2)NC(=O)[C@@H]2C[C@@H](O)CN2C(=O)[C@@H](NC(=O)C2(F)CC2)C(C)(C)C)cc1 [I-138]	< 50	> 1000	> 3000		
Cc1ncsc1-c1ccc([C@H](C)NC(=O)[C@@H]2C[C@@H](O)CN2C(=O)[C@@H](NC(=O)CCCCCCCCNC(=O)c2nc(N3CCc4cccc(C(=O)Nc5nc6ccccc6s5)c4C3)ccc2-c2cnn(CC3CCOCC3)c2C)C(C)(C)C)cc1 [I-142]	> 75	100 to 500	> 3000		
Cc1ncsc1-c1ccc(CNC(=O)[C@@H]2C[C@@H](O)CN2C(=O)[C@@H](NC(=O)C2(F)CC2)C(C)(C)C)c(OCCCC(=O)NCCOc2ccc(C(=O)Nc3nc4ccccc4s3)c3c2CCN(c2ccc(-c4cnn(CC5CCCCC5)c4C)c(C(=O)O)n2)C3)c1 [I-46]	50 to 75	100 to 500	1000 to 3000		
Cc1ncsc1-c1ccc(CNC(=O)[C@@H]2C[C@@H](O)CN2C(=O)[C@@H](NC(=O)C2(F)CC2)C(C)(C)C)c(OCCCCCCCC(=O)NCCOc2ccc(C(=O)Nc3nc4ccccc4s3)c3c2CCN(c2ccc(-c4cnn(CC5CCCCC5)c4C)c(C(=O)O)n2)C3)c1 [I-48]	50 to 75	100 to 500	100 to 1000		
Cc1ncsc1-c1ccc(CNC(=O)[C@@H]2C[C@@H](O)CN2C(=O)[C@@H](c2cc(OCCCCCCCCC(=O)N(C)CC#Cc3ccc(OCCCc4ccc(N5CCc6cccc(C(=O)Nc7nc8ccccc8s7)c6C5)nc4C(=O)O)c(F)c3)no2)C(C)C)cc1 [I-171]	50 to 75	100 to 500	1000 to 3000		
Cc1ncsc1-c1ccc([C@H](C)NC(=O)[C@@H]2C[C@@H](O)CN2C(=O)[C@H](c2cc(N3CCN(c4ccc(S(=O)(=O)NC(=O)c5nc(N6CCc7cccc(C(=O)Nc8nc9ccccc9s8)c7C6)ccc5-c5cnn(CC6CCCCC6)c5C)cc4)CC3)no2)C(C)C)cc1 [I-213]	50 to 75	100 to 500	1000 to 3000		
Cc1ncsc1-c1ccc(CNC(=O)[C@@H]2C[C@@H](O)CN2C(=O)[C@@H](NC(=O)C2(F)CC2)C(C)(C)C)c(OCCN2CCC(NC(=O)c3nc(N4CCc5cccc(C(=O)Nc6nc7ccccc7s6)c5C4)ccc3-c3cnn(CC4CCCCC4)c3C)CC2)c1 [I-191]	50 to 75	100 to 500	100 to 1000		
Cc1ncsc1-c1ccc(CNC(=O)[C@@H]2C[C@@H](O)CN2C(=O)[C@@H](NC(=O)C2(F)CC2)C(C)(C)C)c(OCC(=O)N2CCN(CCCC3(Cn4ncc(-c5ccc(N6CCc7cccc(C(=O)Nc8nc9ccccc9s8)c7C6)nc5C(=O)O)c4C)CCCCC3)CC2)c1 [I-173]	50 to 75	> 1000	100 to 1000		
Cc1ncsc1-c1ccc(CNC(=O)[C@@H]2C[C@@H](O)CN2C(=O)[C@@H](NC(=O)C2(F)CC2)C(C)(C)C)c(OCC2CN(C3CCC(NC(=O)c4nc(N5CCc6cccc(C(=O)Nc7nc8ccccc8s7)c6C5)ccc4-c4cnn(CC5CCCCC5)c4C)CC3)C2)c1 (some centres unmarked) [I-216]			1000 to 3000	< 50	> 1000
Cc1ncsc1-c1ccc([C@H](C)NC(=O)[C@@H]2C[C@H](O)CN2C(=O)[C@@H](NC(=O)CCCCCS(=O)(=O)NC(=O)c2nc(N3CCc4cccc(C(=O)Nc5nc6ccccc6s5)c4C3)ccc2-c2cnn(CC34CC5CC(CC(C5)C3)C4)c2C)C(C)(C)C)cc1 [I-286]			100 to 1000	50 to 75	10 to 100
Cc1ncsc1-c1ccc(CNC(=O)[C@@H]2C[C@@H](O)CN2C(=O)[C@@H](NC(=O)C2(F)CC2)C(C)(C)C)c(OCCCCCCNCc2nc(N3CCc4cccc(C(=O)Nc5nc6ccccc6s5)c4C3)ccc2-c2cnn(CC3CCCCC3)c2C)c1 [I-222]			1000 to 3000	< 50	
Cc1ncsc1-c1ccc([C@H](C)NC(=O)[C@@H]2C[C@@H](O)CN2C(=O)[C@@H](c2cc(OCC3CCN(CCNC(=O)c4nc(N5CCc6cccc(C(=O)Nc7nc8ccccc8s7)c6C5)ccc4-c4cnn(CC5CCCCC5)c4C)CC3)no2)C(C)C)cc1 [I-289]			100 to 1000	50 to 75	10 to 100
Cc1ncsc1-c1ccc([C@H](C)NC(=O)[C@@H]2C[C@@H](O)CN2C(=O)[C@@H](NC(=O)CCCCN(C)CCCCNC(=O)c2nc(N3CCc4cccc(C(=O)Nc5nc6ccccc6s5)c4C3)ccc2-c2cnn(CC3CCCCC3)c2C)C(C)(C)C)cc1 [I-221]			> 3000	< 50	> 1000
